Data set [1] in a line: Solid-state chemical and physical stability under stress and storage conditions. The format is physicochemical. The note with it: for Chemical and physical stability: 25° C./92% RH open, 40° C./75% RH open, 60° C. tight container, over 1 week. As to the method: Solid form stability of freeform Type A was investigated in process solvents EtOH/H2O and MeOH/H2O. […] Purity change in all the rest conditions (40° C./75% RH/open for 2 weeks, 60° C./sealed for 10 days, RT/92.5% RH/open for 10 days, 25° C./60% RH/open for 8 weeks and UV (290 wμ/cm2) for 3 days) was less than 0.4 area %. […]

The nature of data set [2]: Dynamic vapor sorption (DVS) hygroscopicity test. The format is physicochemical. Conditions: for Hygroscopicity: DVS at 25° C. As to the method: Dynamic vapor sorption (DVS) analysis was conducted using SMS DVS Intrinsic using one of below methods:
Sample was weighted to the microbalance. The relative humidity was set to 0% with N2 flow of 200 sccm. The equilibrium was assumed when the weight change of the sample was <0.001 wt % in 10 min or by a maximum equilibration time of 180 minutes. […] Between two equilibrium steps, dm/dt is 0.002%/min. At each equilibrium step, the equilibrium was assumed when the weight change of the sample was <0.001 wt % in 10 min or by a maximum equilibration time of 180 minutes.
Sample was weighted to the microbalance. The relative humidity was set to the closes decile of ambient humidity with N2 flow of 200 sccm. The equilibrium was assumed when the weight change of the sample was <0.001 wt % in 10 min or by a maximum equilibration time of 180 minutes. […] Between two equilibrium steps, dm/dt is 0.002%/min. At each equilibrium step, the equilibrium was assumed when the weight change of the sample was <0.001 wt % in 10 min or by a maximum equilibration time of 180 minutes.
Sample was weighted to the microbalance. The relative humidity was set to 40% with N2 flow of 200 sccm. The equilibrium was assumed when the weight change of the sample was <0.001 wt % in 60 min or by a maximum equilibration time of 360 minutes. […] Between two equilibrium steps, dm/dt is 0.002%/min. At each equilibrium step, the equilibrium was assumed when the weight change of the sample was <0.001 wt % in 60 min or by a maximum equilibration time of 360 minutes.

Data set [3] can be described thus: Pharmacokinetic studies in mice. In kind it is in vivo, male CD-1 mice. The note with it: for AUC(0-t): male, CD-1, mouse, plasma, read-out: AUC0-24h. As to the method:
Compound A free form amorphous (115.7 mg) was prepared by lyophilizing a suspension of compound A free form in water with a minimum amount of acetonitrile.
(§1) Pharmacokinetic studies of Compound A were conducted in male CD-1 mice (Vital River, 8 weeks, 3 animals per dosing route) following Institutional Animal Care and Use Committee guidelines. Intravenous administration was formulated as 0.20 mg/mL solution in N,N-dimethylacetamide:30% solutol HS-15(w/v): saline=20:20:60 (V:V:V). Oral administration was formulated as 1.0 mg/mL suspension in 0.500 methyl cellulose. Blood samples were collected over a 24-h period post-dose. Plasma was isolated and processed with the below protocol: To an aliquot of 10 μL plasma was added 200 μL ACN containing 5 ng/mL terfenadine as internal standard. The mixture was vortexed for 1 m and centrifuged at 4000 rpm for 10 min. An aliquot of 50 μL supernatant was diluted with 150 μL acetonitrile/water. The concentration of Compound A was determined by LC-MS-MS. Non-compartmental pharmacokinetic analysis was performed on the concentration-time data.

A short description of data set [4]: Pharmacokinetic studies in rats. In kind it is in vivo, male SD rats. Conditions: for AUC(0-t): read-out: AUC0-24h. As to the method: as §1, with “male SD rats” for “male CD-1 mice”, “as 1.0” for “as 0.20”, “solutol HS-15(w/v):saline=20:20:60” for “solutol HS-15(w/v): saline=20:20:60”, “in 0.5%” for “in 0.500”, “1 min” for “1 m”
Data set [5] can be described thus: Solid form stability in process solvents. The format is physicochemical. The note with it: MeOH at 50° C. As to the method:
Solid form stability of freeform Type A was investigated in process solvents EtOH/H2O and MeOH/H2O. […] Purity change in all the rest conditions (40° C./75% RH/open for 2 weeks, 60° C./sealed for 10 days, RT/92.5% RH/open for 10 days, 25° C./60% RH/open for 8 weeks and UV (290 wμ/cm2) for 3 days) was less than 0.4 area %.

Where [6] appears, read: PO Dose 10 mpk calculated as free form, 10 mg/kg.
Setting [7] is: male, SD, rat, plasma, po, 10 mg/kg, PO Dose 10 mpk calculated as free form.

Counter-ions that a name gives are not always drawn.

As usually defined, the Cmax is the highest concentration seen after dosing. As a reminder, the half-life is how long it takes for the measured level to halve. The term bioavailability denotes dose-corrected exposure relative to a reference, in per cent.

Take `Cc1cc(-c2c[nH]c3ncc(-c4cc(C)c5c(c4)CCN(C)C5)nc23)ccc1C(=O)N(C)C` [L-malate salt Type A, 4-[2-(2,8-dimethyl-1,2,3,4-tetrahydroisoquinolin-6-yl)-5H-pyrrolo[2,3-b]pyrazin-7-yl]-N,N,2-trimethylbenzamide]: the “Chemical and physical stability” value in data set [1] is “chemically and physically stable”. Also, the “Form change after the DVS test” value in data set [2] is “No form change”. The Hygroscopicity result in data set [2] (listed as L-malate salt Pattern A) is “hygroscopic”. Also, the “Water absorbed (DVS)” value in data set [2] (from 40% RH to 95% RH at 25° C.) is given as “about 7.9%”.

As to `Cc1cc(-c2c[nH]c3ncc(-c4cc(C)c5c(c4)CCN(C)C5)nc23)ccc1C(=O)N(C)C` [Citrate Type B, 4-[2-(2,8-dimethyl-1,2,3,4-tetrahydroisoquinolin-6-yl)-5H-pyrrolo[2,3-b]pyrazin-7-yl]-N,N,2-trimethylbenzamide], the “Form conversion on storage” value in data set [1] (ambient and open conditions (about 25° C. and about 80% RH) over 1 week) is given as “converted to Type A”.

With `Cc1cc(-c2c[nH]c3ncc(-c4cc(C)c5c(c4)CCN(C)C5)nc23)ccc1C(=O)N(C)C` [Compound A free form amorphous, 4-[2-(2,8-dimethyl-1,2,3,4-tetrahydroisoquinolin-6-yl)-5H-pyrrolo[2,3-b]pyrazin-7-yl]-N,N,2-trimethylbenzamide], the Cmax in data set [3] (setting [6]) is 177 ng/mL; in data set [4] (male, SD, rat, plasma, po, 10 mg/kg, PO Dose 10 mpk calculated as free form, read-out: Cmax) it was 235 ng/mL. In data set [3] (setting [6]), the F % was 55.2%. Besides, the t1/2 in data set [3] (setting [6]) is 3.63 h. For the same molecule, the tmax was 3.50 h in data set [3] (setting [6]) and 2 h in data set [4] (male, SD, rat, plasma, po, 10 mg/kg, PO Dose 10 mpk calculated as free form, read-out: tmax). The AUC(0-t) in data set [3] (iv, 1 mg/kg, IV Dose 1 mpk calculated as free form) is 344 ng·h/mL; in data set [3] (po, 10 mg/kg, PO Dose 10 mpk calculated as free form) it was 1900 ng·h/mL; in data set [4] (male, SD, rat, plasma, iv, 1 mg/kg, IV Dose 1 mpk calculated as free form), 656 ng·h/mL; in data set [4] (setting [7]), 1120 ng·h/mL. In data set [4] (male, SD, rat, plasma, 10 mg/kg, PO Dose 10 mpk calculated as free form), the half-life is 4.05 h. Also, the bioavailability in data set [4] (setting [7]) was 17.2%.

As for `Cc1cc(-c2c[nH]c3ncc(-c4cc(C)c5c(c4)CCN(C)C5)nc23)ccc1C(=O)N(C)C` [freeform Type A, 4-[2-(2,8-dimethyl-1,2,3,4-tetrahydroisoquinolin-6-yl)-5H-pyrrolo[2,3-b]pyrazin-7-yl]-N,N,2-trimethylbenzamide], the “HPLC area purity change” value in data set [1] (40° C./75% RH/open 2 weeks, 60° C./sealed 10 days, RT/92.5% RH/open 10 days, 25° C./60% RH/open 8 weeks, UV 3 days) is “less than 0.4 area %”. For the same molecule, in data set [1] (Vis (10000 Lux) for 5 days), the “HPLC area purity decrease” value is listed as around 1.2 area %. For the same molecule, in data set [1] (under the laboratory conditions), the “Form change (physical stability)” value is reported as “No form change”. The “Form change in process solvent” value in data set [5] is reported as “No form change”.

As to `Cc1cc(-c2c[nH]c3ncc(-c4cc(C)c5c(c4)CCN(C)C5)nc23)ccc1C(=O)N(C)C` [Compound A citrate type A, 4-[2-(2,8-dimethyl-1,2,3,4-tetrahydroisoquinolin-6-yl)-5H-pyrrolo[2,3-b]pyrazin-7-yl]-N,N,2-trimethylbenzamide], in data set [3] (setting [6]), the AUC0-24h is 2990 ng·h/mL, the Cmax is 640 ng/mL, the F % is 86.9% and the t1/2 is recorded as 7.95 h. Besides, the tmax in data set [3] (setting [6]) was 1.50 h. Further, in data set [4] (setting [6]), the AUC0-24h is 1603 ng·h/mL, the Cmax is 445 ng/mL, the F % was 24.4% and the tmax is given as 2.67 h. Besides, in data set [1] (3-month experiment), the Long-term stability result is reported as “excellent long-term stability”. The “Chemical and physical stability” value in data set [1] is “chemically and physically stable”. Besides, the “Form change after the DVS test” value in data set [2] was “No form change”. Also, the Hygroscopicity result in data set [2] (listed as citrate salt type A) is listed as “slightly hygroscopic”. For the same molecule, the “Water absorbed (DVS)” value in data set [2] (from 0% RH to 95% RH at 25° C.) is given as “about 0.7%”.

(Values after patent publication US20250042909A1, “POLYMORPH FORMS OF A 5H-PYRROLO[2,3-b]PYRAZINE DERIVATIVE, METHODS OF PREPARATION, AND USES THEREFORE” (BeiGene, Ltd., priority 2022, published 2025).)
